Usually IC50 stands for the concentration that gives 50% inhibition. The EC50 is the concentration that produces a half-maximal response. As usually defined, the AC50 is the midpoint of the concentration-response curve, whichever way the signal moves.

Calls of active or inactive are those of the source.

One series deals with T1, Caspase-3 (Homo sapiens, UniProt P42574).
T1 sequence (P42574 whole entry): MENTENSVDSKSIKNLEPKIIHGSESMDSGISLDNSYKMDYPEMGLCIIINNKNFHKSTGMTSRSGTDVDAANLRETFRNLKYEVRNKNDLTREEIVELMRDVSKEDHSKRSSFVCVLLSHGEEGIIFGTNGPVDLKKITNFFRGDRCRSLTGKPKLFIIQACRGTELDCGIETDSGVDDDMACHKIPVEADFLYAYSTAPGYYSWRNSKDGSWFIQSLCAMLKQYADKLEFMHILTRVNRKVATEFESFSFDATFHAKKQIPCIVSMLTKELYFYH
The format is functional.

The target in series [1] is T2, Sentrin-specific protease 8 (Homo sapiens, UniProt Q96LD8).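 Further: luminescence read-out of SENP8 inhibition, dose-response confirmation following an ultra-high-throughput screen.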
T2 sequence (Q96LD8 whole entry): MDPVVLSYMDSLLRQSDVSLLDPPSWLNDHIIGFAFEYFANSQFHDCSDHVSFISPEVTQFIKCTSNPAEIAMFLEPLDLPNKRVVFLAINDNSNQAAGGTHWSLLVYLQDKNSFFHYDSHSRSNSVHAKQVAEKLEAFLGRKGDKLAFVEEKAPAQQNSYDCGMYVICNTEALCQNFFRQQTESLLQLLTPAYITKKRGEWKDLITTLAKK
Format: functional.

Series [2] has as its target T3, Sentrin-specific protease 6 (Homo sapiens, UniProt Q9GZR1).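 Further: Luminescence-based dose-response confirmatory assay of SENP6 inhibition, following up an ultra-high-throughput screen.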
T3 sequence (Q9GZR1 whole entry): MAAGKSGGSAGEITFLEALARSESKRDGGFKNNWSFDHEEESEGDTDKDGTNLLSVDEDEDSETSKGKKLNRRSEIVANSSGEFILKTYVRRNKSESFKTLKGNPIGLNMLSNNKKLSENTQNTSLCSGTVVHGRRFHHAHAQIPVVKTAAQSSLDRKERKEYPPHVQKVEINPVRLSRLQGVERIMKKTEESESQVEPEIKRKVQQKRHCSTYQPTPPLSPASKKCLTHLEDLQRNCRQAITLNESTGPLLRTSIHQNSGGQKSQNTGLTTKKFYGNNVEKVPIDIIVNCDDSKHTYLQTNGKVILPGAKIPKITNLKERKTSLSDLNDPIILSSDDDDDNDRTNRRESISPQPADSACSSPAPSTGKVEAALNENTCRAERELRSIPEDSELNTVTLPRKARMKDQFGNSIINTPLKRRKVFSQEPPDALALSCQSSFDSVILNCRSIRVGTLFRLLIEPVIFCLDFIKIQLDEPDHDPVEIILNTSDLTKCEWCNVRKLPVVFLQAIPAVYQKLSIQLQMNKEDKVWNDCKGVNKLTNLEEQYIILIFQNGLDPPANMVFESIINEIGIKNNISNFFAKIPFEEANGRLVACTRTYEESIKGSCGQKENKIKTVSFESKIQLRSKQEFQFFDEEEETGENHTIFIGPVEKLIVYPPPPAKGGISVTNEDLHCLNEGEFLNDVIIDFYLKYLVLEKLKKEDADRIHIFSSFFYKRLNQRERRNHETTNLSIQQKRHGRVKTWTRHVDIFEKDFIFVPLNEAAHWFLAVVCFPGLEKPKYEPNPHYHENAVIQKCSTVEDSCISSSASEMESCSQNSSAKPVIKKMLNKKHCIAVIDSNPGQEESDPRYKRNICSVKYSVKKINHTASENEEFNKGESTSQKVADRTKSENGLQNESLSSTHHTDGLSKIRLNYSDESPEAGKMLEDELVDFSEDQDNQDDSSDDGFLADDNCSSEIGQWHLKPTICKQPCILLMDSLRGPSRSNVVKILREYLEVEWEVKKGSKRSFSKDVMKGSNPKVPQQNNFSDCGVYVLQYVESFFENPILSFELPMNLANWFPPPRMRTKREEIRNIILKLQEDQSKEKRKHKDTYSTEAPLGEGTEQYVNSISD
The format is functional.

Series [3] has as its target T4, Sentrin-specific protease 7 (Homo sapiens, UniProt Q9BQF6).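 Further: Luminescence-based dose-response confirmation of ultra-high-throughput screening hits, measuring inhibition of SENP7.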
T4 sequence (Q9BQF6 whole entry): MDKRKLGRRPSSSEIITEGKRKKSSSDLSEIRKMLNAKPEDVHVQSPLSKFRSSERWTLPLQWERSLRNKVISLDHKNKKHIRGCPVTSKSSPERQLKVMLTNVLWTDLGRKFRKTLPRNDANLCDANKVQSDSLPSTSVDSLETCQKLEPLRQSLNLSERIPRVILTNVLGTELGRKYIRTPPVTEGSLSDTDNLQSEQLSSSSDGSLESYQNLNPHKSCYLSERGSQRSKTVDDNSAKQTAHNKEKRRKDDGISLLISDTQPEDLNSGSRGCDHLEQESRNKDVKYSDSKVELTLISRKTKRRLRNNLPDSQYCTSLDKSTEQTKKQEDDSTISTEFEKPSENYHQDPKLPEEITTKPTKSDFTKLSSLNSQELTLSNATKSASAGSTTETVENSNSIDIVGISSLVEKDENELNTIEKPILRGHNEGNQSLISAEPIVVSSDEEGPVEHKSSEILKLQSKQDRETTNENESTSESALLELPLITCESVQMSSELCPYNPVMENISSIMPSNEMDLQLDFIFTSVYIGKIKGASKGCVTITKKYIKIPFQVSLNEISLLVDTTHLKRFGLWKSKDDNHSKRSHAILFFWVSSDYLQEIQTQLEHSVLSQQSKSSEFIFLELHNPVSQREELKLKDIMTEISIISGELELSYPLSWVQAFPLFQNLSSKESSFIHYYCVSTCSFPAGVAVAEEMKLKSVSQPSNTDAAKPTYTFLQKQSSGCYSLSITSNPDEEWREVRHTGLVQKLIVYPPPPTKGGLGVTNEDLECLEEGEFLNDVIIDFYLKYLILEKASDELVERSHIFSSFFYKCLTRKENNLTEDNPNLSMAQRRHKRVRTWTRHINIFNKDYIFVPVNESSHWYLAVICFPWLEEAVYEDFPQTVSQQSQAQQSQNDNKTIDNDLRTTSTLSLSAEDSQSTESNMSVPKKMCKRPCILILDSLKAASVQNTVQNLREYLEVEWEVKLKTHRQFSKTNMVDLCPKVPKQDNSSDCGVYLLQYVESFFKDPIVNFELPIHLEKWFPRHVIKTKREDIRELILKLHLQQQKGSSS
The format is functional.

Series [4] addresses T5, Endoribonuclease toxin MazF (Escherichia coli K-12, UniProt P0AE70).
T5 sequence (P0AE70 whole entry): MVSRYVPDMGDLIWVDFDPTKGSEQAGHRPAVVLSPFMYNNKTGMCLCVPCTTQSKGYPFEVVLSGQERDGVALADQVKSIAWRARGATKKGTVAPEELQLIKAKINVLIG
Kind of series: MazF toxin RNase activators, dose response, biochemical, fluorescence, single-stranded RNA substrate, uHTS hits (AID 588481). Format: functional.

For series [5], the target named is T5, Endoribonuclease toxin MazF. Kind of series: fluorescent RNA oligo signal without MazF, dose response, counter-screen for MazEF activator project, biochemical, fluorescence, single-stranded RNase substrate (AID 588502). Format: functional. For orientation: Counterscreens check selectivity or assay interference.
The nature of series [6]: microbe, parasite or virus in culture. Format: functional. The conditions noted are these: Mycobacterium tuberculosis.
The next series addresses Cytochrome P450 2C9 (Homo sapiens, UniProt P11712).
A further series deals with T6, Protein RecA (Mycobacterium tuberculosis, UniProt P9WHJ3).
T6 sequence (P9WHJ3 whole entry): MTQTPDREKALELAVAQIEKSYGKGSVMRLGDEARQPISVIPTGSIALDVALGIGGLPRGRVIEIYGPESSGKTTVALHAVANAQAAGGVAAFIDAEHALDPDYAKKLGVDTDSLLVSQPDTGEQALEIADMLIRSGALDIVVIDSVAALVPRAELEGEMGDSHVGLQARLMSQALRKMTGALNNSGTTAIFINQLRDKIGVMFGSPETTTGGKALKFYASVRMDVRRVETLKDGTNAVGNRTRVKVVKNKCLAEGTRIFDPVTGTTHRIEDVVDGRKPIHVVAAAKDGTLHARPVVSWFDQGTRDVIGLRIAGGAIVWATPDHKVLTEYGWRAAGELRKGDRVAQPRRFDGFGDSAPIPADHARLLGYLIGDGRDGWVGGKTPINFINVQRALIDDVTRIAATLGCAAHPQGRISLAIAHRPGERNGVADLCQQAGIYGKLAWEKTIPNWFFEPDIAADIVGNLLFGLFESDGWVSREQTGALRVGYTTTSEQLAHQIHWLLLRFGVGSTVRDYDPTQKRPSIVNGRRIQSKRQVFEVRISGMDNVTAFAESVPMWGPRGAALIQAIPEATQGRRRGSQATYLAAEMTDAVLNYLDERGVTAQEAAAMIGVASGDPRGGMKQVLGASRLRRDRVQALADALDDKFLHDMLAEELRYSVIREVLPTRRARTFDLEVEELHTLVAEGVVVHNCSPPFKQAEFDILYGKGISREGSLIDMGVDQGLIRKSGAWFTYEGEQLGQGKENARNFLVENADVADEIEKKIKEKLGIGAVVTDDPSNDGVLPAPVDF
Kind of series: Fluorescence Cell-Free Homogeneous Dose Retest to Identify Inhibitors of RecA-Intein Splicing Activity. [Related pubchem assays (depositor defined):AID2097, AID2223, AID489010, AID492950]. Format: functional.

Another series concerns the target Cytochrome P450 2D6 (Homo sapiens, UniProt P10635).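 Further: CYP2D6 member of a cytochrome P450 panel assay.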
Series [7] has as its target T7, Replicative DNA helicase DnaB (Mycobacterium tuberculosis, UniProt P9WMR3).
T7 sequence (P9WMR3 whole entry): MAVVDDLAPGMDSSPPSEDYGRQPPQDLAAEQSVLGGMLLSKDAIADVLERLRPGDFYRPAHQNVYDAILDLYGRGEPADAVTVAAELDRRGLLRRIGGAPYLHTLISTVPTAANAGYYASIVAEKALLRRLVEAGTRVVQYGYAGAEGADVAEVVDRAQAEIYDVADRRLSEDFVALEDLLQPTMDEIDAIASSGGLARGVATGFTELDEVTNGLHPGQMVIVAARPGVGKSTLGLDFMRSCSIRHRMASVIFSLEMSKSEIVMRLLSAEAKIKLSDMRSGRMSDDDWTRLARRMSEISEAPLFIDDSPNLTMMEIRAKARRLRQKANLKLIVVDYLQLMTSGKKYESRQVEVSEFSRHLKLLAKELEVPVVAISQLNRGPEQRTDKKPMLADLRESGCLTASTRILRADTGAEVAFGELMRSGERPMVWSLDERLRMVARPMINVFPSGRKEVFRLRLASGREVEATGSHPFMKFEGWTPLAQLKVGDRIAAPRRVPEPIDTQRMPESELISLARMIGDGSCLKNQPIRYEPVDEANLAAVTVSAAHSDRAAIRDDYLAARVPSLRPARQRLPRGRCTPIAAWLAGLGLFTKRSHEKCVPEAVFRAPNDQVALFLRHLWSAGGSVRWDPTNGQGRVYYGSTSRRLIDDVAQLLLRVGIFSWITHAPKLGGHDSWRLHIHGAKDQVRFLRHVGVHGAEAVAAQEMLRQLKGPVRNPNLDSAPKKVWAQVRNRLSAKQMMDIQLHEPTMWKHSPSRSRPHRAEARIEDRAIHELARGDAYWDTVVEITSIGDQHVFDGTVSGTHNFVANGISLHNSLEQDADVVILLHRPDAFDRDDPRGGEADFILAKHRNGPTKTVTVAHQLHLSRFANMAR
The series is described as follows: DnaB intein splicing inhibitors, dose response, biochemical, cell-free fluorescence (AID 449749). The format is functional.

Cytochrome P450 2D6, sequence (P10635 whole entry): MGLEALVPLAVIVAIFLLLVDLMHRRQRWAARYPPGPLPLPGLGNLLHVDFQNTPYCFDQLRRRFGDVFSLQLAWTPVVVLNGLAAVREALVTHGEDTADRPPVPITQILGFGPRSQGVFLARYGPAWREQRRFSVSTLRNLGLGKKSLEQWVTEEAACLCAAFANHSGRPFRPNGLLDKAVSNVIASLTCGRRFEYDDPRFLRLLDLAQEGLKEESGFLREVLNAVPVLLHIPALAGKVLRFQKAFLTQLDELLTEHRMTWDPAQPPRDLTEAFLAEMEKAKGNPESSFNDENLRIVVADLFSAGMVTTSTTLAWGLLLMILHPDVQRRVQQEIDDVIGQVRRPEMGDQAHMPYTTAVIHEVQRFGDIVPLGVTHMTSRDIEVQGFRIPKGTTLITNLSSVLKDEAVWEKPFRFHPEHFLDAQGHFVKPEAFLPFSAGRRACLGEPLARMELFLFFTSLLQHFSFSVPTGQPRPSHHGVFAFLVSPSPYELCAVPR
Cytochrome P450 2C9, sequence (P11712 whole entry): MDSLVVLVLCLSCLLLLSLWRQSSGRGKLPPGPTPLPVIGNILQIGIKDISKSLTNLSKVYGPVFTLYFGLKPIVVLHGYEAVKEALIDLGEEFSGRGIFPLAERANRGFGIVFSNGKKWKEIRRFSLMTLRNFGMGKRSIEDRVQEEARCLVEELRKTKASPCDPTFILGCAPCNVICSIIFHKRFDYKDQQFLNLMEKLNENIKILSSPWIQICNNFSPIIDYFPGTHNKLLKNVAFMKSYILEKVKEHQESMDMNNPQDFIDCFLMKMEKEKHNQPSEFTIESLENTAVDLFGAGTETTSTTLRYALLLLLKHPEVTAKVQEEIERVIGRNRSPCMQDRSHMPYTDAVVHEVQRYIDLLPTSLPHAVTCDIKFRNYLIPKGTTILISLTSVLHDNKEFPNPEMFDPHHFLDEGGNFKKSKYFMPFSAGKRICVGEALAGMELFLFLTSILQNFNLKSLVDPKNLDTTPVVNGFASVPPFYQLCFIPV

Regarding `Cc1cccc(-c2noc(C3CCCCC3)n2)c1`, the IC50 at Caspase-3 was 32 µM (active); in series [1], > 100 µM (inactive); in series [2] it was 40.1 µM (active); in series [3] it was 11.3 µM (active).
As for `COC(=O)Cn1c2ccc(OC)cc2c2nc3ccccc3nc21`, the EC50 in [4] and in series [5] was > 99 µM (inactive) throughout.
Consider `Nc1c2c(nc3sc4c(c13)CCCCC4)CCCC2`, for which the IC50 on Caspase-3 is 18.4 µM (active); in [1] it was 32.8 µM (active); in series [2], 33.7 µM (active); in series [3], 10.3 µM (active). Also, the CC50 in series [6] was 18 µM (active).
On to `CCC(CC)C(=O)NCc1ccc2c(c1)cc(C)n2C`, for which the AC50 result on Cytochrome P450 2C9 is “inconclusive”; on Cytochrome P450 2D6, 31.6 µM (inconclusive); in [7], > 380 µM (inactive). On Protein RecA, the EC50 is > 380 µM (inactive).
In the case of `CCCNC(=O)Cn1c(=O)/c(=C/c2ccc(-c3cccc([N+](=O)[O-])c3)o2)s/c1=C\C(=O)C(C)(C)C`, the EC50 in series [4] and in series [5] was > 99 µM (inactive) throughout.
As to `CCCCN1CC(=O)N2[C@H]3c4cc(C)ccc4OC[C@@H]3[C@H](c3ccccc3)[C@]2(C)C1=O`, the figures for the EC50 in series [4] and in series [5] were > 99 µM (inactive) and 24 µM (inactive), respectively.
The corresponding values for `Cc1ccc2c(Cl)c(C(=O)N/N=C/c3cccn3C)sc2c1` are > 99 µM (inactive) and > 99 µM (inactive).

The values above are taken from ChEMBL document CHEMBL1201862, “PubChem BioAssay data set” (2004).
